Test system: human PBMC-derived, CD3/CD28-activated CD4+T cells
Assay: Phosphoproteomic and fuco-proteomic mass spectrometric profiling of CD4+T cells
Assay type: cell-based
Conditions: 250 μM L-fucose, 48 h
Text: FIGS. 14A-14E show Fucosylation of CD4^+T cells affects PKA activity and actin polymerization; and the identification of Integrin P5 as a highly fucosylated protein in activated CD4+ T cells. (a) Top 5 pathways in human CD4^+T cells that are affected by increased fucosylation identified by Ingenuity Pathway Analysis (Qiagen; pathways were identified from phosphoproteomic analyses of CD3/CD28-activated human PBMC-derived CD4^+T cells treated L-fucose (LF) isolated from 3 independent healthy human donors (D1, D2, D3)). (b) (left) Immunoblot of PKA phosphorylated substrates (top) and Ponceau staining (bottom) of human PBMC-derived, CD3/CD28-activated CD4^+T cells that were treated ±250 μM LF±10 μM forskolin (Fkn, a PKA agonist). (right) Densitometric quantification of selected bands (red dashed boxes) normalized to Ponceau staining. (c) Immunoblot of β-actin (top) and Ponceau staining (middle) of human PBMC-derived, CD3/CD28 activated CD4^+T cells were treated ±250 μM LF±25 mM DTSP crosslinker (x-link). (bottom) Densitometric quantification of high molecular weight β-actin oligomers (red dashed boxes) normalized to Ponceau intensity and then normalized to −LF, -x-link samples. (d) Top 5 AAL-bound (fucosylated) proteins in human PBMC-derived, CD3/CD28-activated CD4^+T cells from (a) that were identified by Ingenuity Pathway Analysis (Qiagen). […]

SMILES: C[C@H](O)[C@@H](O)[C@@H](O)[C@H](O)C=O [L-fucose]
- Protein Kinase A (PKA) and actin signaling: significantly altering

— patent US20240197761A1, “FUCOSYLATION AND IMMUNE MODULATION IN CANCER” (H. LEE MOFFITT CANCER CENTER AND RESEARCH INSTITUTE, INC., priority 2021, published 2024)
